Experimental data published in ChEMBL document CHEMBL3885861, “Open TG-GATES”.

Organism: Rattus norvegicus
Assay: Open TG-GATES - Regimen: Daily Repeat
Format: toxicity, organism-based, Sprague-Dawley
Set-up: regimen Daily Repeat, gender Male, age 6 weeks
Conditions: in vivo, po, 0 mg/kg, route gavage, dose level Control; for APTT / Bas / Eos / Fbg / Hb / Ht / Lym / MCHC / MCV / Mono / Neu / PT / Plat / RBC / Ret / WBC: tissue Blood; for KIDNEY_L / KIDNEY_R / KIDNEY_TOTAL: tissue Kidney; for LIVER: tissue Liver; for ALP / ALT / AST / CRE / DBIL / GLC / IP / K / LDH / Na / PL / RALB / TBIL / TC / TG / TP / gamma-GTP: tissue Plasma

SMILES: C#C[C@]1(O)CC[C@H]2[C@@H]3CCC4=Cc5oncc5C[C@]4(C)[C@H]3CC[C@@]21C [DANAZOL]
- TERMINAL_BW (72 h, time 3 day): 236.4 g
- APTT (72 h, time 3 day): 23.9 s
- Bas (72 h, time 3 day): 0%
- Eos (72 h, time 3 day): 0.8%
- Fbg (72 h, time 3 day): 304.4 mg/dL
- Hb (72 h, time 3 day): 13.4 g/dL
- Ht (72 h, time 3 day): 40.8%
- Lym (72 h, time 3 day): 77.4%
- MCHC (72 h, time 3 day): 32.7%
- MCV (72 h, time 3 day): 63.8 fL
- Mono (72 h, time 3 day): 3%
- Neu (72 h, time 3 day): 17.2%
- PT (72 h, time 3 day): 15.5 s
- Plat (72 h, time 3 day): 120.7 x10_4/uL
- RBC (72 h, time 3 day): 639.8 x10_4/ul
- Ret (72 h, time 3 day): 6.7%
- WBC (72 h, time 3 day): 80.8 x10_2/uL
- KIDNEY_L (72 h, time 3 day): 1 g
- KIDNEY_R (72 h, time 3 day): 1 g
- KIDNEY_TOTAL (72 h, time 3 day): 2 g
- LIVER (72 h, time 3 day): 11.6 g
- ALP (72 h, time 3 day): 1436.8 IU/L
- ALT (72 h, time 3 day): 45.8 IU/L
- AST (72 h, time 3 day): 72.4 IU/L
- CRE (72 h, time 3 day): 0.2 mg/dL
- DBIL (72 h, time 3 day): 0 mg/dL
- GLC (72 h, time 3 day): 197.6 mg/dL
- IP (72 h, time 3 day): 7.8 mg/dL
- K (72 h, time 3 day): 4.2 meq/L
- LDH (72 h, time 3 day): 190 IU/L
- Na (72 h, time 3 day): 142.6 meq/L
- PL (72 h, time 3 day): 140 mg/dL
- RALB (72 h, time 3 day): 3.1 g/dL
- TBIL (72 h, time 3 day): 0.008 mg/dL
- TC (72 h, time 3 day): 72.2 mg/dL
- TG (72 h, time 3 day): 95.6 mg/dL
- TP (72 h, time 3 day): 5.5 g/dL
- gamma-GTP (72 h, time 3 day): 1.6 IU/L
- TERMINAL_BW ([…], time 7 day): 266.9 g
- TERMINAL_BW ([…], time 14 day): 328.6 g
- TERMINAL_BW ([…], time 28 day): 402.2 g
- APTT ([…], time 7 day): 22.8 s
- Bas ([…], time 7 day): 0%
- Eos ([…], time 7 day): 1%
- Fbg ([…], time 7 day): 302.8 mg/dL
- Hb ([…], time 7 day): 13.8 g/dL
- Ht ([…], time 7 day): 40.8%
- Lym ([…], time 7 day): 76.8%
- MCHC ([…], time 7 day): 33.9%
- MCV ([…], time 7 day): 60.1 fL
- Mono ([…], time 7 day): 3%
- Neu ([…], time 7 day): 18.8%
- PT ([…], time 7 day): 15.2 s
- Plat ([…], time 7 day): 116.5 x10_4/uL
- RBC ([…], time 7 day): 678.8 x10_4/ul
- Ret ([…], time 7 day): 5.9%
- WBC ([…], time 7 day): 114.8 x10_2/uL
- APTT ([…], time 14 day): 24.6 s
- Bas ([…], time 14 day): 0%
- Eos ([…], time 14 day): 0.8%
- Fbg ([…], time 14 day): 325.6 mg/dL
- Hb ([…], time 14 day): 14.5 g/dL
- Ht ([…], time 14 day): 41.5%
- Lym ([…], time 14 day): 83%
- MCHC ([…], time 14 day): 34.9%
- MCV ([…], time 14 day): 60.6 fL
- Mono ([…], time 14 day): 2%
- Neu ([…], time 14 day): 13.4%
- PT ([…], time 14 day): 15.3 s
- Plat ([…], time 14 day): 124.1 x10_4/uL
- RBC ([…], time 14 day): 685.8 x10_4/ul
- Ret ([…], time 14 day): 3.8%
- WBC ([…], time 14 day): 122.1 x10_2/uL
- APTT ([…], time 28 day): 23.5 s
- Bas ([…], time 28 day): 0%
- Eos ([…], time 28 day): 1%
- Fbg ([…], time 28 day): 293 mg/dL
- Hb ([…], time 28 day): 14.6 g/dL
- Ht ([…], time 28 day): 42.9%
- Lym ([…], time 28 day): 82.8%
- MCHC ([…], time 28 day): 34.1%
- MCV ([…], time 28 day): 57.9 fL
- Mono ([…], time 28 day): 1.8%
- Neu ([…], time 28 day): 13.6%
- PT ([…], time 28 day): 15.9 s
- Plat ([…], time 28 day): 101.9 x10_4/uL
- RBC ([…], time 28 day): 740 x10_4/ul
- Ret ([…], time 28 day): 2.1%
- WBC ([…], time 28 day): 119.8 x10_2/uL
- KIDNEY_L ([…], time 7 day): 1.1 g
- KIDNEY_R ([…], time 7 day): 1.1 g
- KIDNEY_TOTAL ([…], time 7 day): 2.3 g
- KIDNEY_L ([…], time 14 day): 1.3 g
- KIDNEY_R ([…], time 14 day): 1.4 g
- KIDNEY_TOTAL ([…], time 14 day): 2.7 g
- KIDNEY_L ([…], time 28 day): 1.4 g
- KIDNEY_R ([…], time 28 day): 1.4 g
- KIDNEY_TOTAL ([…], time 28 day): 2.8 g
- LIVER ([…], time 7 day): 12 g
- LIVER ([…], time 14 day): 14.6 g
- LIVER ([…], time 28 day): 15.8 g
- ALP ([…], time 7 day): 1763.8 IU/L
- ALT ([…], time 7 day): 42 IU/L
- AST ([…], time 7 day): 69.6 IU/L
- CRE ([…], time 7 day): 0.2 mg/dL
- DBIL ([…], time 7 day): 0 mg/dL
- GLC ([…], time 7 day): 202.8 mg/dL
- IP ([…], time 7 day): 7.2 mg/dL
- K ([…], time 7 day): 4.4 meq/L
- LDH ([…], time 7 day): 184 IU/L
- Na ([…], time 7 day): 141.8 meq/L
- PL ([…], time 7 day): 157 mg/dL
- RALB ([…], time 7 day): 3 g/dL
- TBIL ([…], time 7 day): 0.004 mg/dL
- TC ([…], time 7 day): 80.4 mg/dL
- TG ([…], time 7 day): 106.8 mg/dL
- TP ([…], time 7 day): 5.5 g/dL
- gamma-GTP ([…], time 7 day): 1.6 IU/L
- ALP ([…], time 14 day): 1603.8 IU/L
- ALT ([…], time 14 day): 36.8 IU/L
- AST ([…], time 14 day): 65.6 IU/L
- CRE ([…], time 14 day): 0.2 mg/dL
- DBIL ([…], time 14 day): 0 mg/dL
- GLC ([…], time 14 day): 188.2 mg/dL
- IP ([…], time 14 day): 7.2 mg/dL
- K ([…], time 14 day): 4.2 meq/L
- LDH ([…], time 14 day): 186.6 IU/L
- Na ([…], time 14 day): 142.2 meq/L
- PL ([…], time 14 day): 158 mg/dL
- RALB ([…], time 14 day): 3.1 g/dL
- TBIL ([…], time 14 day): 0.004 mg/dL
- TC ([…], time 14 day): 74.4 mg/dL
- TG ([…], time 14 day): 139.8 mg/dL
- TP ([…], time 14 day): 5.8 g/dL
- gamma-GTP ([…], time 14 day): 3 IU/L
- ALP ([…], time 28 day): 1301.4 IU/L
- ALT ([…], time 28 day): 41.8 IU/L
- AST ([…], time 28 day): 63.8 IU/L
- CRE ([…], time 28 day): 0.2 mg/dL
- DBIL ([…], time 28 day): 0 mg/dL
- GLC ([…], time 28 day): 200.4 mg/dL
- IP ([…], time 28 day): 6.4 mg/dL
- K ([…], time 28 day): 4 meq/L
- LDH ([…], time 28 day): 141.6 IU/L
- Na ([…], time 28 day): 141.8 meq/L
- PL ([…], time 28 day): 144.2 mg/dL
- RALB ([…], time 28 day): 3 g/dL
- TBIL ([…], time 28 day): 0 mg/dL
- TC ([…], time 28 day): 71 mg/dL
- TG ([…], time 28 day): 118.2 mg/dL
- TP ([…], time 28 day): 5.9 g/dL
